Results on two compounds are retold here after patent US12679849B2, “Macrocyclic compounds as STING agonists” (LUPIN LIMITED, priority 2019, dated 2026).

What is called EC50 is the concentration that produces a half-maximal response. Low readings indicate a more potent agent, high ones a less potent agent.

The target in one test is T1, Human STING (Homo sapiens, UniProt Q86WV6, G230A/H232R/R293Q/R71H).
T1 construct: using human THP1-Blue™ ISG SEAP based reporter cell line (Invivogen); host or cells: THP1-Blue ISG (human monocytic THP-1 derived SEAP reporter line)
Put plainly: Stimulation of human STING signalling in THP1-Blue ISG SEAP reporter cell line. The test is classed as cell-based. To be noted: THP1-Blue ISG cells, 18-20 hours incubation. The protocol:
Stimulation of Human STING Signalling in THP1 Cell Line
Compounds were tested for their STING activation potential using human THP1-Blue™ ISG SEAP based reporter cell line (Invivogen). Briefly, THP1-Blue ISG cells (100,000 cells/well) in 96 well plate were treated with varying concentrations of test and reference compounds and incubated at 37° C. with 5% CO2 for 18-20 hours. The control untreated cells were also set up. Post incubation, the cell supernatant was tested for SEAP (Secreted Embryonic Alkaline Phosphatase) activity using the QuantiBlue™ substrate reagent (Invivogen). The formation of blue coloured product was quantified by measuring absorbance at wavelength of 620 nm using PheraStar/Tecan reader. The average of duplicate readouts for each data point was plotted in GraphPad prism 6 against the concentration of test or reference compound to calculate EC50 value. The fold of SEAP induction or increase in luminescence at different data points was estimated against the un-stimulated cell control set.

Another test concerns IFNβ. Put plainly: Cytokine (IFNβ) secretion in serum samples from CT-26 tumor bearing BALB/c mice. It is filed as in vivo, mouse. The note with it: serum of CT-26 tumor-bearing BALB/c mice, 0.5 mg/kg, 3.5 h. The protocol:
Quantification of the Cytokine Secretion in Serum Samples from the CT-26 Tumor Bearing BALB/c Mice
CT-26 tumor-bearing animals were administered with test compounds at the dose of 0.5 mg/kg, in a dose-volume of 5 ml/kg. Serum samples were collected at designated time points (3.5 h) and frozen at −80° C. till further estimation. Mouse serum samples were diluted appropriately with dilution buffer before estimation of IFNβ utilizing commercially available kits (VeriKine Mouse IFN Beta ELISA, PBL assay science, Catalog No 42400-2). Raw data values were corrected with the dilution factor and finally expressed in pg/mL.

T1 sequence (Q86WV6 whole entry R71H/G230A/H232R/R293Q): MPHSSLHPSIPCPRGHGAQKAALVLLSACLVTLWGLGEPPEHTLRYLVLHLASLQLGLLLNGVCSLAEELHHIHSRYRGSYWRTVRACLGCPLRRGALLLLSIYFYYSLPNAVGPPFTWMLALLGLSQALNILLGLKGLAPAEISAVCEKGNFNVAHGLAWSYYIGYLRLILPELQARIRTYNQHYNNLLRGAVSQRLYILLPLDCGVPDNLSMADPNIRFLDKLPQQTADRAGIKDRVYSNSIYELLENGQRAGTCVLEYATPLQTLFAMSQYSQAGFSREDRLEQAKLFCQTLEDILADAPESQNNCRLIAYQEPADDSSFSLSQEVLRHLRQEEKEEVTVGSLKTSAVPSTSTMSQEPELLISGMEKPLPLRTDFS

As to `CCn1nc(C)cc1C(=O)Nc1nc2cc(C(N)=O)cc3c2n1C/C=C/Cn1c(NC(=O)c2cc(C)nn2CC)nc2cc(C(N)=O)cc(c21)OCC(N1CC2CCC(C1)O2)CO3` [Compound 1, (E)-8-(8-oxa-3-azabicyclo[3.2.1]octan-3-yl)-1,15-bis(1-ethyl-3-methyl-1H-pyrazole-5-carboxamido)-8,9,16,19-tetrahydro-7H-6,10-dioxa-2,14,15a,19a-tetraazacyclopentadeca[3,2,1-cd:8,9,10-c′d′]diindene-4,12-dicarboxamide], the EC50 at Human STING was 1 to 10 nM. Besides, the IFNβ secretion in the test with IFNβ is reported as 4344 pg/mL.
On Human STING, `CCn1nc(C)cc1C(=O)Nc1nc2cc(C(N)=O)cc3c2n1C/C=C/Cn1c(NC(=O)c2cc(C)nn2CC)nc2cc(C(N)=O)cc(c21)OCC(N1C2CCC1COC2)CO3` [Compound 2, (E)-8-(3-oxa-8-azabicyclo[3.2.1]octan-8-yl)-1,15-bis(1-ethyl-3-methyl-1H-pyrazole-5-carboxamido)-8,9,16,19-tetrahydro-7H-6,10-dioxa-2,14,15a,19a-tetraazacyclopentadeca[3,2,1-cd:8,9,10-c′d′]diindene-4,12-dicarboxamide] yielded an EC50 of 1 to 10 nM. Also, in the test with IFNβ, the IFNβ secretion turned out to be 28305 pg/mL.
